Measurements reported in PubChem BioAssay AID330 (DTP/NCI, 2004).
Toxic doses and inconclusive results are not listed. Rule for the calls: active = survival T/C of 150% or more; inactive = T/C below 125% in these data.

Test system: P388 leukemia ip, CD2F1 mice, survival T/C
Test: NCI In Vivo Anticancer Drug Screen. Data for tumor model P388 Leukemia (intraperitoneal) in CD2F1 (CDF1) mice
Details: endpoint: median survival time, higher = longer survival
How it was run: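 Mice carrying the transplanted tumor received test compound or vehicle. Survival was recorded in each group, and the value is the treated-group measurement divided by that of the vehicle-treated control group.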

[1] = dose: 50.0 mg/kg/injection, schedule: Q01DX005 (ip), vehicle: Klucel (hydroxypropylcellulose) (HPC)
[2] = dose: 100.0 mg/kg/injection, schedule: Q01DX005 (ip), vehicle: Klucel (hydroxypropylcellulose) (HPC)
[3] = dose: 200.0 mg/kg/injection, schedule: Q01DX005 (ip), vehicle: Klucel (hydroxypropylcellulose) (HPC)
[4] = dose: 50.0 mg/kg/injection, schedule: Q01DX005 (ip), vehicle: saline with Tween-80
[5] = dose: 100.0 mg/kg/injection, schedule: Q01DX005 (ip), vehicle: saline with Tween-80
[6] = dose: 200.0 mg/kg/injection, schedule: Q01DX005 (ip), vehicle: saline with Tween-80

Measured: T/C

CSc1cccc(NC(=O)OCCOc2ccc([N+](=O)[O-])cc2)c1
inactive: dose: 50.0 mg/kg/injection, schedule: Q01DX009 (ip), vehicle: Klucel (hydroxypropylcellulose) (HPC) 98 % of control | dose: 100.0 mg/kg/injection, schedule: Q01DX009 (ip), vehicle: Klucel (hydroxypropylcellulose) (HPC) 101 % of control | dose: 200.0 mg/kg/injection, schedule: Q01DX009 (ip), vehicle: Klucel (hydroxypropylcellulose) (HPC) 99 % of control

O=C=Nc1cccc2c1C(=O)c1ccccc1-2
inactive: [1] 91 % of control | [2] 88 % of control | [3] 86 % of control

CCCCCC(=O)C(C)(c1nc2nnc(N)n2[nH]c1=O)c1nc2nnc(N)n2[nH]c1=O
inactive: [4] 93 % of control | [5] 93 % of control | [6] 94 % of control

C#CC(=O)OCC#CCOC(=O)C#C
inactive: dose: 0.75 mg/kg/injection, schedule: Q01DX009 (ip), vehicle: saline with Tween-80 104 % of control | dose: 1.5 mg/kg/injection, schedule: Q01DX009 (ip), vehicle: saline with Tween-80 104 % of control | dose: 3.0 mg/kg/injection, schedule: Q01DX009 (ip), vehicle: saline with Tween-80 112 % of control | dose: 6.0 mg/kg/injection, schedule: Q01DX009 (ip), vehicle: saline with Tween-80 96 % of control

Cc1cc(N/N=C(\c2ccccc2)c2ccccn2)nc2ccccc12
inactive: [4] 104 % of control | [5] 103 % of control | [6] 94 % of control

N#C/C(C(N)=O)=C1/C(=O)Nc2ccccc21
inactive: [1] 103 % of control | [2] 98 % of control | [3] 94 % of control

BrCCc1ccc2ccccc2c1Br
inactive: dose: 50.0 mg/kg/injection, schedule: Q01DX005 (ip), vehicle: distilled water + Tween-80 + alcohol 111 % of control | dose: 100.0 mg/kg/injection, schedule: Q01DX005 (ip), vehicle: distilled water + Tween-80 + alcohol 109 % of control | dose: 200.0 mg/kg/injection, schedule: Q01DX005 (ip), vehicle: distilled water + Tween-80 + alcohol 105 % of control

CC(C)CCCCc1c[nH]c(=O)[nH]c1=O
inactive: dose: 100.0 mg/kg/injection, schedule: Q01DX009 (ip), vehicle: saline with Tween-80 95 % of control | dose: 200.0 mg/kg/injection, schedule: Q01DX009 (ip), vehicle: saline with Tween-80 90 % of control | dose: 400.0 mg/kg/injection, schedule: Q01DX009 (ip), vehicle: saline with Tween-80 100 % of control

CC(C)N(B1NCC(C)N1C(C)C)C(C)C (centres undefined)
inactive: dose: 100.0 mg/kg/injection, schedule: Q01DX001 (ip), vehicle: saline 101 % of control | dose: 200.0 mg/kg/injection, schedule: Q01DX001 (ip), vehicle: saline 102 % of control | dose: 400.0 mg/kg/injection, schedule: Q01DX001 (ip), vehicle: saline 100 % of control

O=C1c2ccccc2C(=O)N1CC[P+](C1CCCCC1)(C1CCCCC1)C1CCCCC1
inactive: dose: 0.78 mg/kg/injection, schedule: Q01DX009 (ip), vehicle: saline with Tween-80 110 % of control | dose: 1.56 mg/kg/injection, schedule: Q01DX009 (ip), vehicle: saline with Tween-80 112 % of control | dose: 3.13 mg/kg/injection, schedule: Q01DX009 (ip), vehicle: water 97 % of control | dose: 6.25 mg/kg/injection, schedule: Q01DX009 (ip), vehicle: saline with Tween-80 116 % of control | dose: 6.25 mg/kg/injection, schedule: Q01DX009 (ip), vehicle: water 118 % of control | dose: 12.5 mg/kg/injection, schedule: Q01DX009 (ip), vehicle: water 118 % of control | dose: 25.0 mg/kg/injection, schedule: Q01DX009 (ip), vehicle: water 118 % of control | dose: 50.0 mg/kg/injection, schedule: Q01DX009 (ip), vehicle: water 86 % of control

c1ccc(-c2nnn(-c3ccccc3)n2)cc1
inactive: dose: 12.5 mg/kg/injection, schedule: Q01DX009 (ip), vehicle: saline with Tween-80 91 % of control | dose: 25.0 mg/kg/injection, schedule: Q01DX009 (ip), vehicle: saline with Tween-80 91 % of control | dose: 50.0 mg/kg/injection, schedule: Q01DX009 (ip), vehicle: saline with Tween-80 91 % of control
